Assays:
SHP-77 = assay: Inhibition of proliferation of SHP-77 cancer cells (Cell Titer-Glo); format: cell-based; details: Homo sapiens, SHP77, 72 hours
Experimental: To evaluate an inhibitory effect on the proliferation of cancer cells, each of an MDA-MB-231 cell line (Korean Cell Line Bank #30026) and an MDA-MB-468 cell line as triple-negative breast cancer cell lines, and SHP-77 (ATCC #CRL-2195) as a small-cell lung cancer cell line was cultured in DMEM (HyClone #SH30243) or an RPMI medium (HyClone #SH3027.01) to analyze a cell growth rate. More specifically, a cell line was plated on a 96-well flat bottom plate (Corning #3903) at a density of 2,000 cells/100 μL per well, and then treated with 11 concentrations of the Example compound, a solution of which was diluted 3-fold so that a final concentration of the compound was 10.000000, 3.333333, 1.111111, 0.370370, 0.123457, 0.041152, 0.013717, 0.004572, 0.001524, 0.000508, and 0.000169 μM. After 72 hours, each of the culture media was treated with 100 μL of Cell Titer-Glo (Promega G7573), and then cultured at room temperature for 10 minutes. Then, a degree of luminescence was measured using a microplate reader. A GI50 value was calculated from the measured degree of luminescence using Prism (Version 8.2 GraphPad) software.

LRRK2 = LRRK2 (Homo sapiens, UniProt Q5S007); assay: LRRK2 enzyme inhibition, ADP-Glo kinase assay; format: biochemical; design: purchased Invitrogen PR8604B; details: ATP 10 μM
Outline: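 ADP-Glo luminescent read-out of ADP formed by purified human LRRK2 enzyme (25 ng), 10 μM ATP, 0.2 μg substrate, 25° C for 2 h, Tris-HCl pH 7.4 buffer with MgCl2, BSA, DTT. Inhibition versus untreated solvent control over twelve final concentrations (50 μM downward) gives IC50.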

human GST-CLK1 = molecular target: T1, human GST-CLK1 (Homo sapiens, UniProt P49759); assay: GST-CLK1 enzyme inhibition, ADP-Glo kinase assay; format: biochemical; details: ATP 10 μM, GST-CLK1 129-end
T1 construct: purified human GST-CLK1 (129-end, SignalChem) enzyme; purchased SignalChem
Outline: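 ADP-Glo luminescence read-out, relative to untreated solvent control, gave IC50 (nM) from triplicate data sets. Reactions ran an hour at 25° C with 3 ng GST-CLK1 (residues 129-end), 10 μM ATP and specific substrate in Tris-HCl pH 7.4 buffer with MgCl2, BSA and DTT.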

human GST-DYRK1A = molecular target: T2, human GST-DYRK1A (Homo sapiens, UniProt Q13627); assay: GST-DYRK1A enzyme inhibition, ADP-Glo kinase assay; format: biochemical; details: ATP 10 μM, GST-DYRK1A full length, read-out: DYRK1 IC50
T2 construct: purified human GST-DYRK1A (full length, Thermo Scientifics) enzyme; purchased Thermo Scientifics
Outline: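 Full-length enzyme (10 ng) was incubated with 10 μM ATP and a specific substrate for 1 h at 25 °C in 40 mM Tris-HCl pH 7.4, 20 mM MgCl2, 0.5 mg/mL BSA, 50 μM DTT. Luminescence was read against a solvent control, and IC50 values were derived from 3 data sets.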

LRRK2 (G2019S) = LRRK2 (G2019S) (Homo sapiens, UniProt Q5S007, G2019S); assay: LRRK2 G2019S enzyme inhibition, ADP-Glo kinase assay; format: biochemical; design: purchased SignalChem L10-12GG; details: ATP 25 μM
Outline: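 IC50 derived from luminescent ADP-Glo readout against untreated solvent control, twelve final compound concentrations from 50 μM downward. Reaction: recombinant human LRRK2 G2019S enzyme, 25 μM ATP, substrate, pH 7.4 Tris buffer with MgCl2/BSA/DTT, 25° C. for 2 hours.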

MDA-MB-231 cell line = assay: Inhibition of proliferation of MDA-MB-231 cancer cells (Cell Titer-Glo); format: cell-based; details: Homo sapiens, 72 hours
Outline: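 A 72-hour treatment with compound (eleven final concentrations, 3-fold apart, top 10 μM) of cells seeded at 2,000 per well preceded a Cell Titer-Glo luminescence read, from which GI50 was obtained.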

Sequence of LRRK2 (G2019S) (Q5S007 970-2527 G2019S limits assumed): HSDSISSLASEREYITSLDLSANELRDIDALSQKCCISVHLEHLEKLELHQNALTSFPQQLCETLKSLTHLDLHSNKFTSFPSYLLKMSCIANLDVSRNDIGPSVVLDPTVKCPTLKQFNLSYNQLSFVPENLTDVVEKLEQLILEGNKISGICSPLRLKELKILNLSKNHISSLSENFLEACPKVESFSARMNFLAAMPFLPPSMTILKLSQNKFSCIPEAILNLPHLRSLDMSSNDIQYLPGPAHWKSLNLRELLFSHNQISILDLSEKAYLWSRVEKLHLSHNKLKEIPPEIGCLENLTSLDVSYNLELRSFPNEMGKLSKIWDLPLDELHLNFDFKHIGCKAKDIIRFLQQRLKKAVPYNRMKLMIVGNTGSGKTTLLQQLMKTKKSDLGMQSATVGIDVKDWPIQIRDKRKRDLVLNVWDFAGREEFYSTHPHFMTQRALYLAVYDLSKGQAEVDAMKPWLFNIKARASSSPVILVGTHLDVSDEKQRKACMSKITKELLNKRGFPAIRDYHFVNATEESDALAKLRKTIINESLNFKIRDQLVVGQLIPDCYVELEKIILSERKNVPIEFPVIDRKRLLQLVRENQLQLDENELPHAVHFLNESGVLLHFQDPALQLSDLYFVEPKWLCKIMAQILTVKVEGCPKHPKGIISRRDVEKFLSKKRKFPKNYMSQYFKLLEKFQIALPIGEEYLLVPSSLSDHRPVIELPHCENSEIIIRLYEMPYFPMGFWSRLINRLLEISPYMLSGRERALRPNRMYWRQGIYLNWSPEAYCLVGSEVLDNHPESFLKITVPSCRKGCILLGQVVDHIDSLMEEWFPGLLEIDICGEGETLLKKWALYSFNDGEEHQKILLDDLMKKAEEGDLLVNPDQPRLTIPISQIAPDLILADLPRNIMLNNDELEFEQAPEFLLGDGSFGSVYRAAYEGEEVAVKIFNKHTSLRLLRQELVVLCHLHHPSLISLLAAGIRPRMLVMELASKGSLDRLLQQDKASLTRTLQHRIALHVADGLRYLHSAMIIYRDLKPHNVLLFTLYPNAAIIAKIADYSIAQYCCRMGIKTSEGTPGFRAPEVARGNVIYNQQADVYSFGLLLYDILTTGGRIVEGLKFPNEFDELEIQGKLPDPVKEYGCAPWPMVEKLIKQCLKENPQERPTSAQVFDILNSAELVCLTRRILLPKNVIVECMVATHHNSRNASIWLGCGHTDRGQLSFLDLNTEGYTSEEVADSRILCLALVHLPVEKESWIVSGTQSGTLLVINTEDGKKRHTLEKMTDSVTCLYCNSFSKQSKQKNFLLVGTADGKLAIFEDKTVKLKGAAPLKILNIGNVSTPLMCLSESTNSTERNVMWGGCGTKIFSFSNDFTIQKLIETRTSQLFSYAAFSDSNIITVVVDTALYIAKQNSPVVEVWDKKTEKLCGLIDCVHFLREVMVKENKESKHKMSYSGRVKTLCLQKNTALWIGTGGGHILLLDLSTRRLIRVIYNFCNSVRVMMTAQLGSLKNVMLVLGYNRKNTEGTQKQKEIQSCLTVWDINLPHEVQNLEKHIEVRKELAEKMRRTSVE
T1 sequence (P49759 129-484 limits assumed): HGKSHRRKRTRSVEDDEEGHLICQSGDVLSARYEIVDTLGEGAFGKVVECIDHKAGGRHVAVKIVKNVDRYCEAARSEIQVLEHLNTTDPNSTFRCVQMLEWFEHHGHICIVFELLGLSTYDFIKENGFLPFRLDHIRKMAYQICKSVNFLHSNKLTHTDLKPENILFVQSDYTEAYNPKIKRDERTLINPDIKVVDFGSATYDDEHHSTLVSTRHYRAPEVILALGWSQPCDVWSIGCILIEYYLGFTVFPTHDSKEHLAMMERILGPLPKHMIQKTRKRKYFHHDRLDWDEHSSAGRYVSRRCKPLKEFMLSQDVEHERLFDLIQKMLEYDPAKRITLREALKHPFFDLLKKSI
Sequence of LRRK2 (Q5S007 970-2527 limits assumed): as the sequence (Q5S007 970-2527 G2019S limits assumed) above, with S1050G counted along it

GI50 (SHP-77) [nM]	IC50 (LRRK2) [nM]	IC50 (human GST-CLK1) [nM]	IC50 (human GST-DYRK1A) [nM]	IC50 (LRRK2 (G2019S)) [nM]	GI50 (MDA-MB-231 cell line) [nM]	SMILES
301 to 1000	< 100	301 to 1000	301 to 1000	101 to 300	301 to 1000	CCCCNc1nc(Nc2ccc(S(=O)(=O)N3CCC(N4CCOCC4)CC3)cc2OC)nc2[nH]cc(C(F)(F)F)c12 [Example 202, N^4-butyl-N^2-(2-methoxy-4-((4-morpholinopiperidin-1-yl)sulfonyl)phenyl)-5-(trifluoromethyl)-7H-pyrrolo[2,3-d]pyrimidine-2,4-diamine]
< 50	< 100	301 to 1000	301 to 1000	< 100	< 50	COc1cc(S(=O)(=O)N2CCOCC2)ccc1Nc1nc(NCC2CC2)c2c(C#N)c[nH]c2n1 [Example 77, 4-((cyclopropylmethyl)amino)-2-((2-methoxy-4-(morpholinosulfonyl)phenyl)amino)-7H-pyrrolo[2,3-d]pyrimidine-5-carbonitrile]
51 to 100	< 100	101 to 300	301 to 1000	< 100	< 50	COc1cc(S(=O)(=O)N2CCC(N3CCOCC3)CC2)ccc1Nc1nc(NC2CCC2)c2c(C#N)c[nH]c2n1 [Example 89, 4-(cyclobutylamino)-2-((2-methoxy-4-((4-morpholinopiperidin-1-yl)sulfonyl)phenyl)amino)-7H-pyrrolo[2,3-d]pyrimidine-5-carbonitrile]
101 to 300	< 100	< 100	101 to 300	< 100	301 to 1000	COCCNc1nc(Nc2ccc(S(=O)(=O)N3CCC(N4CCOCC4)CC3)cc2OC)nc2[nH]cc(C(F)(F)F)c12 [Example 170, N^2-(2-methoxy-4-((4-morpholinopiperidin-1-yl)sulfonyl)phenyl)-N^4-(2-methoxyethyl)-5-(trifluoromethyl)-7H-pyrrolo[2,3-d]pyrimidine-2,4-diamine]
101 to 300	301 to 1000	301 to 1000	301 to 1000	301 to 1000	301 to 1000	CC[C@@H](C)Nc1nc(Nc2ccc(S(=O)(=O)N3CCC(N4CCOCC4)CC3)cc2OC)nc2[nH]cc(C(F)(F)F)c12 [Example 172, (R)-N^4-(sec-butyl)-N^2-(2-methoxy-4-((4-morpholinopiperidin-1-yl)sulfonyl)phenyl)-5-(trifluoromethyl)-7H-pyrrolo[2,3-d]pyrimidine-2,4-diamine]
301 to 1000	< 100	301 to 1000	301 to 1000	< 100	301 to 1000	COc1cc(S(=O)(=O)N2CCOCC2)ccc1Nc1nc(NC2CC2)c2c(C#N)c[nH]c2n1 [Example 70, 4-(cyclopropylamino)-2-((2-methoxy-4-(morpholinosulfonyl)phenyl)amino)-7H-pyrrolo[2,3-d]pyrimidine-5-carbonitrile]
51 to 100	< 100	301 to 1000	301 to 1000	< 100	101 to 300	COc1cc(S(=O)(=O)N2CCOCC2)ccc1Nc1nc(NC2CCC2)c2c(C#N)c[nH]c2n1 [Example 71, 4-(cyclobutylamino)-2-((2-methoxy-4-(morpholinosulfonyl)phenyl)amino)-7H-pyrrolo[2,3-d]pyrimidine-5-carbonitrile]
< 50	< 100	301 to 1000	301 to 1000	< 100	< 50	CCCCNc1nc(Nc2ccc(S(=O)(=O)N3CCC(N4CCOCC4)CC3)cc2OC)nc2[nH]cc(C#N)c12 [Example 97, 4-(butylamino)-2-((2-methoxy-4-((4-morpholinopiperidin-1-yl)sulfonyl)phenyl)amino)-7H-pyrrolo[2,3-d]pyrimidine-5-carbonitrile]
< 50	< 100	301 to 1000	301 to 1000	< 100	< 50	CCCNc1nc(Nc2ccc(S(=O)(=O)N3CCOCC3)cc2OC)nc2[nH]cc(C#N)c12 [Example 64, 2-((2-methoxy-4-(morpholinosulfonyl)phenyl)amino)-4-(propylamino)-7H-pyrrolo[2,3-d]pyrimidine-5-carbonitrile]

Second part, the compound before the results:

SMILES	GI50 (SHP-77) [nM]	IC50 (LRRK2) [nM]	IC50 (human GST-CLK1) [nM]	IC50 (human GST-DYRK1A) [nM]	IC50 (LRRK2 (G2019S)) [nM]	GI50 (MDA-MB-231 cell line) [nM]
COc1cc(S(=O)(=O)N2CCC(N3CCOCC3)CC2)ccc1Nc1nc(NC2CCC2)c2c(C(F)(F)F)c[nH]c2n1 [Example 183, N^4-cyclobutyl-N^2-(2-methoxy-4-((4-morpholinopiperidin-1-yl)sulfonyl)phenyl)-5-(trifluoromethyl)-7H-pyrrolo[2,3-d]pyrimidine-2,4-diamine]	301 to 1000	< 100	301 to 1000	301 to 1000	101 to 300	301 to 1000
COc1cc(S(=O)(=O)N2CCOCC2)ccc1Nc1nc(NC(C)C)c2c(C(F)(F)F)c[nH]c2n1 [Example 164, N^4-isopropyl-N^2-(2-methoxy-4-(morpholinosulfonyl)phenyl)-5-(trifluoromethyl)-7H-pyrrolo[2,3-d]pyrimidine-2,4-diamine]	51 to 100	< 100	301 to 1000	301 to 1000	301 to 1000	301 to 1000
COCC(C)(C)Nc1nc(Nc2ccc(S(=O)(=O)N3CCOCC3)cc2OC)nc2[nH]cc(C(F)(F)F)c12 [Example 175, N^4-(1-methoxy-2-methylpropan-2-yl)-N^2-(2-methoxy-4-(morpholinosulfonyl)phenyl)-5-(trifluoromethyl)-7H-pyrrolo[2,3-d]pyrimidine-2,4-diamine]	101 to 300	301 to 1000	301 to 1000	301 to 1000	301 to 1000	301 to 1000
COc1cc(S(=O)(=O)N2CCC(N3CCOCC3)CC2)ccc1Nc1nc(NC(C)C)c2c(C(F)(F)F)c[nH]c2n1 [Example 165, N^4-isopropyl-N^2-(2-methoxy-4-((4-morpholinopiperidin-1-yl)sulfonyl)phenyl)-5-(trifluoromethyl)-7H-pyrrolo[2,3-d]pyrimidine-2,4-diamine]	51 to 100	< 100	301 to 1000	301 to 1000	101 to 300	< 50
COc1cc(S(=O)(=O)N2CCC(N3CCOCC3)CC2)ccc1Nc1nc(NCC2CCC2)c2c(C(F)(F)F)c[nH]c2n1 [Example 197, N^4-(cyclobutylmethyl)-N^2-(2-methoxy-4-((4-morpholinopiperidin-1-yl)sulfonyl)phenyl)-5-(trifluoromethyl)-7H-pyrrolo[2,3-d]pyrimidine-2,4-diamine]	301 to 1000	< 100	301 to 1000	301 to 1000	101 to 300	301 to 1000
COc1cc(S(=O)(=O)N2CCOCC2)ccc1Nc1nc(NC2CCCC2)c2c(C#N)c[nH]c2n1 [Example 72, 4-(cyclopentylamino)-2-((2-methoxy-4-(morpholinosulfonyl)phenyl)amino)-7H-pyrrolo[2,3-d]pyrimidine-5-carbonitrile]	< 50	301 to 1000	301 to 1000	301 to 1000	301 to 1000	< 50
CCNc1nc(Nc2ccc(S(=O)(=O)N3CCOCC3)cc2OC)nc2[nH]cc(C(F)(F)F)c12 [Example 191, N^4-ethyl-N^2-(2-methoxy-4-(morpholinosulfonyl)phenyl)-5-(trifluoromethyl)-7H-pyrrolo[2,3-d]pyrimidine-2,4-diamine]	101 to 300	101 to 300	301 to 1000	301 to 1000	301 to 1000	301 to 1000

— patent publication US20230066011A1, “PYRROLOPYRIMIDINE DERIVATIVE, AND PHARMACEUTICAL COMPOSITION FOR PREVENTING OR TREATING PROTEIN KINASE-RELATED DISEASE COMPRISING SAME AS ACTIVE INGREDIENT” (VORONOI CO., LTD., priority 2019, published 2023)
